Results published in patent US20190375708A1 (VenatoRx Pharmaceuticals, Inc., priority 2018, published 2019).

Columns and labels:
[1] = test system: HBV replication in HepAD38 cells; test: Anti-HBV replication assay in HepAD38 cells (QPCR of extracellular HBV DNA); assay type: cell-based, HBV (genotype D, serotype ayw); details: Hepatitis B virus, 168 h, 7 days incubation, extracellular HBV DNA by QPCR, read-out: Anti-HBV EC50
Outline: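 HepAD38 cells (HepG2 carrying tet-repressible HBV genotype D genome) induced by tetracycline withdrawal, treated 7 days at 37 °C with compound ([…], 1-log10 dilutions). Extracellular HBV DNA quantified by QPCR against a standard curve, normalised to DMSO; EC50 from 4-parameter fit.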

[2] = In vitro cytotoxicity assay (MTT cell viability) in HepG2 cells; assay type: cell-based, human; details: human
Outline: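 HepG2 cells incubated 7 days at 37 °C, 5% CO2 with compounds from 30 μM to 1.0 nM (8 half-log dilutions). Viability read as MTT formazan absorbance at 492 nm, normalised to vehicle controls; CC50 from 4-parameter non-linear regression.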

## Cc1noc([C@H](C)NC(=O)C(=O)c2c(Cl)c(C(=O)Nc3ccc(F)c(F)c3)c3n2CCC3)n1 [Example 568, (S)-6-chloro-N-(3,4-difluorophenyl)-5-(2-((1-(3-methyl-1,2,4-oxadiazol-5-yl)ethyl)amino)-2-oxoacetyl)-2,3-dihydro-1H-pyrrolizine-7-carboxamide]
[1]
  EC50: < 50 nM
[2]
  CC50 at 7 days: 5000 to 30000 nM

## Cc1cc(NC(=O)c2c(C)c(C(=O)C(=O)N[C@@H](C(N)=O)[C@H](C)O)n(C)c2C)ccc1F [Example 44, 5-(2-(((2R,3S)-1-amino-3-hydroxy-1-oxobutan-2-yl)amino)-2-oxoacetyl)-N-(4-fluoro-3-methylphenyl)-1,2,4-trimethyl-1H-pyrrole-3-carboxamide]
[1]
  EC50: < 50 nM
[2]
  CC50 at 7 days: > 30000 nM

## Cc1c(C(=O)Nc2ccc(F)c(Cl)c2)c(C)n(C)c1C(=O)C(=O)Nc1cccnc1 [Example 311, N-(3-chloro-4-fluorophenyl)-1,2,4-trimethyl-5-(22-oxo-2-(pyridin-3-ylamino)acetyl)-1H-pyrrole-3-carboxamide]
[1]
  EC50: < 50 nM
[2]
  CC50 at 7 days: > 30000 nM

## Cc1cc(NC(=O)c2c(C)c(C(=O)C(=O)NC(C)(C)C)n(CCF)c2C)ccc1F [Example 115, 5-(2-(tert-butylamino)-2-oxoacetyl)-N-(4-fluoro-3-methylphenyl)-1-(2-fluoroethyl)-2,4-dimethyl-1H-pyrrole-3-carboxamide]
[1]
  EC50: < 50 nM
[2]
  CC50 at 7 days: > 30000 nM

## Cc1cc(NC(=O)c2c(C)c(C(=O)C(=O)N3CCc4nc(N)sc4C3)n(C)c2C)ccc1F [Example 49, 5-(2-(2-amino-6,7-dihydrothiazolo[5,4-c]pyridin-5(4H)-yl)-2-oxoacetyl)-N-(4-fluoro-3-methylphenyl)-1,2,4-trimethyl-1H-pyrrole-3-carboxamide]
[1]
  EC50: 50 to 499 nM
[2]
  CC50 at 7 days: > 30000 nM

## Cc1cc(NC(=O)c2c(C)c(C(=O)C(=O)NC3(C)CCN(C(=O)c4cnn(C)c4)CC3)n(C)c2C)ccc1F [Example 693, N-(4-fluoro-3-methylphenyl)-1,2,4-trimethyl-5-(2-((4-methyl-1-(1-methyl-1H-pyrazole-4-carbonyl)piperidin-4-yl)amno)-2-oxoacetyl)-1H-pyrrole-3-carboxamide]
[1]
  EC50: < 50 nM
[2]
  CC50 at 7 days: > 30000 nM

## Cc1c(C(=O)Nc2ccc(F)c(F)c2)c(C)n(C)c1C(=O)C(=O)NC1CCC(F)(F)CC1 [Example 298, 5-(2-((4,4-difluorocyclohexyl)amino)-2-oxoacetyl)-N-(3,4-difluorophenyl)-1,2,4-trimethyl-1H-pyrrole-3-carboxamide]
[1]
  EC50: < 50 nM
[2]
  CC50 at 7 days: > 30000 nM

## Cc1c(C(=O)Nc2ccc(F)nc2)c(C)n(C)c1C(=O)C(=O)NC(C)(C)CO [Example 120, N-(6-fluoropyridin-3-yl)-5-(2-((1-hydroxy-2-methylpropan-2-yl)amino)-2-oxoacetyl)-1,2,4-trimtehyl-1H-pyrrole-3-carboxamide]
[1]
  EC50: 500 to 1000 nM
[2]
  CC50 at 7 days: > 30000 nM

## Cc1c(C(=O)Nc2ccc(F)c(F)c2)c(Cl)c(C(=O)C(=O)NC2(C(F)(F)F)CC2)n1C [Example 376, 4-chloro-N-(3,4-difluorophenyl)-1,2-dimethyl-5-(2-oxo-2-((1-(trifluoromethyl)cyclopropyl)amino)acetyl)-1H-pyrrole-3-carboxamide]
[1]
  EC50: < 50 nM
[2]
  CC50 at 7 days: 5000 to 30000 nM

## Cc1noc(C2(NC(=O)C(=O)c3c(C)c(C(=O)Nc4ccc(F)c(C)c4)c(C)n3C)CC2)n1 [Example 155, N-(4-fluoro-3-methylphenyl)-1,2,4-trimethyl-5-(2-((1-(3-methyl-1,2,4-oxxadiazol-5-yl)cyclopropyl)amino)-2-oxoacetyl)-1H-pyrrole-3-carboxamide]
[1]
  EC50: < 50 nM
[2]
  CC50 at 7 days: > 30000 nM

## Cc1c(C(=O)Nc2ccnc(F)c2)c(C)n(C)c1C(=O)C(=O)NC(C)(C)CO [Example 133, N-(2-fluoropyridin-4-yl)-5-(2-((1-hydroxy-2-methylpropan-2-yl)amino)-2-oxoacetyl)-1,2,4-trimethyl-1H-pyrrole-3-carboxamide]
[1]
  EC50: 50 to 499 nM
[2]
  CC50 at 7 days: > 30000 nM
